The source of these data is article PMC2764853, “Versatile Assays for High Throughput Screening for Activators or Inhibitors of Intracellular Proteases and Their Cellular Regulators” (PLoS ONE, 2009).

Test [1] addresses Caspase1 activated with Asc. Nature of the test: Yeast cleavable-reporter β-galactosidase assay, Asc/Caspase-1 two-component system (384 well). In kind it is cell-based, human. The settings on record: 384 well β-galactosidase activity assay, read-out: IC50 for z-VAD inhibition of Caspases. Here is the method: (§1) Figure 5 Validation of yeast-based assay using pharmacological inhibitor of Caspases. (A) Caspase-1, single component assay. EGY48 yeast cells expressing S1 substrate (TEF-Fas-d-S1-TA) and high levels of Caspase-1 (TEF-HA-Caspase1-FLAG) were incubated for 3 days in selection media (SD/X-gal) with the indicated concentrations of z-VAD-fmk in DMSO (•) or DMSO only (○), using 384-well plates. (B) Asc/Caspase-1 two-component system. EGY48 yeast cells expressing S1 substrate (TEF-Fas-d-S1-TA) a low level of pro-Caspase-1 (ΔTEF1-Caspase1-FLAG) and high levels of Asc (TEF-HA-Asc) were incubated for 3 days in the selection media (SD/X-gal) in 384 well plates with the indicated concentrations of calpeptin (▴) or z-VAD-fmk (•) or an equivalent volume of DMSO (○). (C) Fas/FADD/Caspase8 three-component system. […] For (A–C), relative absorbance at 620 nm was measured (mean ± std dev; n = 3−5 independent experiments). […]
For caspase assays, the assays were performed in a total volume of 40 µl in triplicate. […] Absorbance at 620 nm was measured 2–3 days after culture at 30°C. […]
(§2) Supplementary file pone.0007655.s002.pdf: Table S1 Determination of IC50 values for zVAD-fmk inhibition of Caspases in yeast. […] The compound was titrated into assays at various concentrations and percentage inhibition was determined. IC50 values were determined, using PRIZM software for analysis. […]

Test [2] concerns the target Caspase10 activated with FADD. Nature of the test: Yeast cleavable-reporter β-galactosidase assay, FADD/Caspase-10 (384 well). In kind it is cell-based, human. The settings on record: 384 well β-galactosidase activity assay, read-out: IC50 for z-VAD inhibition of Caspases. As to the method: (§3) For caspase assays, the assays were performed in a total volume of 40 µl in triplicate. First, 20 µl of liquid selection media containing X-gal and a series of concentrations of reagents such as z-VAD was dispensed into each well of 384-well plates. Next, confluent yeast cells expressing various Caspases and cleavable substrates were collected, washed with water, and suspended in selection media of the same volume as the culture media. The yeast suspension was diluted to 1∶5-10 (v:v) with the selection media, and 20 µl aliquots were added to the 384-well plates. For ATG4B assays, yeast cells expressing ATG4B and LC3 fused-transcription factor were cultured overnight in standard growth medium, then the yeast cells were diluted in selection medium (SD medium containing 1% galactose, 0.2% raffinose, BU salts, and 100 µg/ml X-gal) at 10^4/ml and dispensed 100 µl into each well of 384-well plates. Absorbance at 620 nm was measured 2–3 days after culture at 30°C.
as §2

Test [3] has as its system NLRP1/ASC/Caspase-1 proteolytic network. Nature of the test: Yeast cleavable-reporter β-galactosidase assay, NLRP1/ASC/Caspase-1 three-component system (384 well). The test is classed as cell-based, human. The settings on record: 100 µM zVAD final, 2×10^5 cells/well, 48 hours, 400 µg/ml X-gal; Assay Max (DMSO) 0.78. As to the method: For the Fas/FADD/Caspase-8 and the NLRP1/Asc/Caspase-1 assays, EGY48 yeast containing the desired plasmids were streaked onto SD plates (6.8 g Yeast Nitrogen Base w/o amino acids, 20 mg arginine, 50 mg threonine, 30 mg isoleucine, 60 mg phenylalanine, 20 mg valine) containing agar (1.7%), supplemented with 2% α-D-glucose and 50 µg/mL leucine. The plates were incubated at 30°C for 48 hrs and a colony was picked and transferred to a 14 ml polypropylene tube containing 2 ml of SD media broth supplemented with α-D-glucose and leucine as above and grown at 30°C for 16–24 hrs with shaking. Then, 1 ml of the overnight culture was transferred into 20 mls of growth media in a 500 ml flask and shaken at 30°C for 16–24 hrs. […] After 48 hours, the plates were brought to room temperature, the breathable film removed and replaced with the transparent polyester tape seal, and the plates were mixed, pelleted briefly and read using a Beckman DTX 880, recording absorbance at 620 nm.
Supplementary file pone.0007655.s020.pdf: Figure S18 Determination of Z' scores for NLRP1(NALP1) and Fas(CD95) 3-component yeast-based HTS assays using caspase inhibitor zVAD-fmk. […] The Z' scores were determined by comparison of the DMSO-treated samples with the zVAD-treated samples. […]

Another test deals with Caspases. Nature of the test: Yeast-based Caspase-dependent lacZ reporter gene assays, 384 well format (summary over assays). The test is classed as cell-based, human. As to the method:
We further validated the 384 well assay format, using zVAD-fmk, a peptidyl inhibitor with broad-spectrum activity against animal Caspases. For some experiments, a Calpain inhibitor was employed in side-by-side experiments as a control. The broad-spectrum Caspase inhibitor zVAD-fmk inhibited β-galactosidase activity in a dose-dependent fashion, with the concentration required for achieving 50% inhibition ranging from ∼1–10 µM in these assays, which were performed in 384 well format (Figure 5) (Table S1). […] These experiments verify that the 384 well version of the yeast-based Caspase-dependent reporter gene assay faithfully indicates the activity of an inhibitory compound, thus fulfilling one of the prerequisites for developing HTS assays.
Figure 5 Validation of yeast-based assay using pharmacological inhibitor of Caspases. (A) Caspase-1, single component assay. EGY48 yeast cells expressing S1 substrate (TEF-Fas-d-S1-TA) and high levels of Caspase-1 (TEF-HA-Caspase1-FLAG) were incubated for 3 days in selection media (SD/X-gal) with the indicated concentrations of z-VAD-fmk in DMSO (•) or DMSO only (○), using 384-well plates. […] For (A–C), relative absorbance at 620 nm was measured (mean ± std dev; n = 3−5 independent experiments). […]
(§4) For caspase assays, the assays were performed in a total volume of 40 µl in triplicate. […] Absorbance at 620 nm was measured 2–3 days after culture at 30°C.
On the technique in general: Reporter assays use an easily measured gene product as a stand-in for the process of interest.

The next test concerns the target T1, Caspase6 (Homo sapiens, UniProt P55212).
T1 construct: We expressed full-length Caspases-1, 2, 3, 4, 5, 6, 7, and 9 from high copy-number plasmids; HA (N); expressed in transfected cells; host or cells: Saccharomyces cerevisiae (EGY48)
T1 sequence (P55212 24-179 limits assumed): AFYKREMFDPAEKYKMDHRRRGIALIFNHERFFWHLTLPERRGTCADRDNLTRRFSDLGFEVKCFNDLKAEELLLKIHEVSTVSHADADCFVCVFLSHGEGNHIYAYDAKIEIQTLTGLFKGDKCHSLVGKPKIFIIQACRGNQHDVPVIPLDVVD
T1 sequence (P55212 194-293 limits assumed): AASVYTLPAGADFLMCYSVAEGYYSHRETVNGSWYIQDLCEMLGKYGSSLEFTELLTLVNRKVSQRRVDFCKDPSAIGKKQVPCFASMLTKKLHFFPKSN
Nature of the test: Yeast cleavable-reporter β-galactosidase assay, Caspase-6 (384 well). The settings on record: yeast expressing Caspase6; 384 well β-galactosidase activity assay; read-out: IC50 for z-VAD inhibition of Caspases. In kind it is cell-based. Here is the method: as §3, §2

Test [4] addresses Caspase9 activated with Apaf*. Nature of the test: Yeast cleavable-reporter β-galactosidase assay, Apaf*/Caspase-9 (384 well). In kind it is cell-based, human. The settings on record: 384 well β-galactosidase activity assay, read-out: IC50 for z-VAD inhibition of Caspases. Here is the method: as §3, §2
Test [5] has as its system Caspase8 activated with FADD + Fas. The test is described as follows: Yeast cleavable-reporter β-galactosidase assay, Fas/FADD/Caspase-8 three-component system (384 well). The test is classed as cell-based, human. The settings on record: for selectivity for Fas/FADD/Caspase-8 over Asc/Caspase-1 in yeast reporter assays: 384 well, various concentrations, 2–4 days at 30°C, OD620, counter-strains lacZ, Asc/Caspase-1, empty vector. As to the method: Figure 5 Validation of yeast-based assay using pharmacological inhibitor of Caspases. (A) Caspase-1, single component assay. EGY48 yeast cells expressing S1 substrate (TEF-Fas-d-S1-TA) and high levels of Caspase-1 (TEF-HA-Caspase1-FLAG) were incubated for 3 days in selection media (SD/X-gal) with the indicated concentrations of z-VAD-fmk in DMSO (•) or DMSO only (○), using 384-well plates. (B) Asc/Caspase-1 two-component system. EGY48 yeast cells expressing S1 substrate (TEF-Fas-d-S1-TA) a low level of pro-Caspase-1 (ΔTEF1-Caspase1-FLAG) and high levels of Asc (TEF-HA-Asc) were incubated for 3 days in the selection media (SD/X-gal) in 384 well plates with the indicated concentrations of calpeptin (▴) or z-VAD-fmk (•) or an equivalent volume of DMSO (○). (C) Fas/FADD/Caspase8 three-component system. EGY48 yeast cells expressing S8 substrate (TEF-S8-TA), low levels of pro-Caspase-8 CYC1-Caspase-8-HA, with a small amount of FADD (from ΔADH1 promoter) and a large amount of Fas (from ADH promoter), were incubated in selection media (SD/X-gal) with the indicated concentrations of calpeptin (▴) or z-VAD-fmk (•), or equivalent volume of DMSO (○), in 384-well plates for 3–4 days. For (A–C), relative absorbance at 620 nm was measured (mean ± std dev; n = 3−5 independent experiments). (* indicates p<0.001).
Figure 6 HTS Implementation of yeast-based, 3-component Caspase assays. (A) Validation of HTS assay for NLRP1-Asc-Caspase-1 system. Yeast cells (18 µl, typically at ≈2×10^5 cells/well) containing NLRP1ΔLRR/Asc/Caspase-1 were plated into wells of 384 well plates in media containing 1% galactose, 0.2% raffinose. Wells also contained 18 µL selection media with (blue squares) or without (purple diamonds) X-gal substrate (400 µg/mL final Concentration) plus 10% DMSO (4 µl) (to simulate compound addition). The plates were incubated for 72 hrs at 30°C and the OD620 was recorded. Values (mean±std dev) were calculated for the assay maximum and minimum. The Z' factor was calculated as described. (B) Example of library screening plate for NLRP1-Asc-Caspase-1. Yeast cells (typically at ≈2×10^5 cells/well) containing NLRP1/Asc/Caspase-1 were plated in 384 well plates in Selection Media, without (purple triangles) or with (all other wells) 400 µg/ml X-gal (final concentration). Compounds in DMSO (∼10 µM final) had been pre-added to wells (diamonds). The plates were incubated for 72 hrs at 30°C and the OD620 was recorded, “Hits” were defined by >50% reduction (as shown in green diamonds). […] Yeast cells containing Fas/FADD/Caspase-8 were cultured in 384 well plates as above with (blue squares) or without (purple diamonds) X-gal substrate, the plates were incubated for 72 hrs at 30°C and analyzed as above. […] Plates were incubated for 48 hrs at 30°C and OD620 values recorded. […]

The next test deals with T2, Caspase1 (Homo sapiens, UniProt P29466).
T2 construct: We expressed full-length Caspases-1, 2, 3, 4, 5, 6, 7, and 9 from high copy-number plasmids; HA (N); FLAG (C); expressed in transfected cells; host or cells: Saccharomyces cerevisiae EGY48
T2 sequence (P29466 120-297 limits assumed): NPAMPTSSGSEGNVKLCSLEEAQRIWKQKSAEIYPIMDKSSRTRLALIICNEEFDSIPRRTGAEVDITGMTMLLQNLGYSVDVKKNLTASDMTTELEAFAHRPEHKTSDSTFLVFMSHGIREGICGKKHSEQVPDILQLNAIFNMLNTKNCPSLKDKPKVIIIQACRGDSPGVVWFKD
T2 sequence (P29466 317-404 limits assumed): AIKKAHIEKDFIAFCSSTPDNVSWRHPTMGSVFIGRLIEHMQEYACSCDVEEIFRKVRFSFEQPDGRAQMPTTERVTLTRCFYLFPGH
Nature of the test: Yeast cleavable-reporter β-galactosidase assay, Caspase-1 single component (384 well). The settings on record: yeast expressing Caspase1 alone at high levels; 384 well β-galactosidase activity assay; read-out: IC50 for z-VAD inhibition of Caspases. In kind it is cell-based. As to the method:
as §1, §4, §2

Structures are written as SMILES. Residues, ends and D or L forms follow the SMILES beside them. *: point of attachment. Cbz = O=C(OCc1ccccc1)*; CH2F = FC*

In the case of `COC(=O)C[C@H](NC(=O)[C@H](C)NC(=O)[C@@H](NC(=O)OCc1ccccc1)C(C)C)C(=O)CF` [zVAD-fmk] (Cbz-Val-Ala-Asp(OMe)-CH2F), the IC50 in test [1] is 1 µM; in test [2], 9.52 µM; on Caspases (range over the yeast Caspase assays, dose-dependent, read-out: concentration required for achieving 50% inhibition of β-galactosidase activity) it was 1 to 10 µM; on Caspase6, 6.78 µM; in test [4] it was 10.7 µM; in test [5] (yeast, Caspase8 activated with FADD + Fas, 384 well β-galactosidase activity assay, read-out: IC50 for z-VAD inhibition of Caspases) it was 5.42 µM. The IC50 at Caspase1 was 3.07 µM. Further, the “Assay Min (zVAD), absorbance OD620” value in test [3] worked out at 0.19; in test [5] (100 µM zVAD final, 2×10^5 cells/well, 48 hours, 400 µg/ml X-gal, Assay Max (DMSO) 0.56), 0.20.

Consider `C[n+]1cc2c3c(ccc2c2ccc4cc5c(cc4c21)OCO5)OCO3` [CID-5154], for which the “selectivity for Fas/FADD/Caspase-8 over Asc/Caspase-1 in yeast reporter assays” value in test [5] is on record as “selective inhibition of Fas-FADD-Caspase-8”.

For `c1ccc2c(c1)[I+]c1ccccc1-2` [CID-3101], the “selectivity for Fas/FADD/Caspase-8 over Asc/Caspase-1 in yeast reporter assays” value in test [5] was “selective inhibition of Fas-FADD-Caspase-8”.

For `CCCC[C@@H](C=O)NC(=O)[C@H](CC(C)C)NC(=O)OCc1ccccc1` [Calpain inhibitor, calpeptin], the “suppression of activation of the lacZ reporter gene” value with Caspases (control compound side-by-side with zVAD-fmk) was “did not suppress activation of the lacZ reporter gene”.
